pIC50: −log10 of the molar value. Counter-ions that a name gives are not always drawn. Like-named read-outs stand apart in the source and are kept apart here.

Test [1] concerns Zymosan Stimulated Macrophaqes. Put plainly: Test A: Inhibition of Arachidonic Acid Release from Zymosan Stimulated Macrophages. The format is cell-based, mouse (female MF1). The following applies: read-out: Test A IC50. As to the method: Inhibition of Arachidonic Acid Release from Zymosan Stimulated Macrophaqes
Female MF1 mice (weighing 20 to 25 g) were killed using a rising concentration of CO2. The mice were laid on their backs and the abdomens wiped with 70% alcohol. The skin was pulled back, exposing the peritoneal wall. Medium A (5 ml) (see below) was injected into the peritoneal cavity of each mouse followed by approximately 1 ml of air using a 20 ml syringe and a 21 G×40 mm needle in order to form a suspension of macrophage cells. The medium and cells were then removed using a 19 G×40 mm needle. The resulting suspension was returned to a sterile beaker kept on ice. The extracts from all the mice were pooled and this pooled cell suspension was counted using a Coulter counter and adjusted to a final cell count of 1-1.3×10^6 cells/ml prior to labelling with [^3 H]-arachidonic acid. Typically five mice provided sufficient cells for each multiwell plate.
Sufficient [^3 H]-arachidonic acid in ethanol to give a final concentration of 1.6 μCi/ml (equivalent to 40 μCi/plate) was blown to dryness under nitrogen. The arachidonic acid was then resuspended in 1 or 2 ml of the cell suspension which was then mixed with the remainder of the cell suspension in a centrifuge bottle. The labelled cell suspension was then plated out into sterile plastic 96 flat-bottomed well plates (250 μl per well) and incubated overnight at 37° C. in a moist atmosphere of 5% CO2, 95% air.
The following day, non-adherent cells were removed by washing 3 times with sterile phosphate buffered saline (PBS). The adherent peritoneal macrophages were then cultured for a further 24 hours in the presence or absence of drugs, in medium B (see below) at 37° in a 5% CO2 atmosphere in order to measure the effects of drugs on the spontaneous release of arachidonic acid in the absence of stimulus. After this incubation, supernatants were removed to give media 1 and stored in sealed multi-well plates at 4° C. prior to scintillation counting. Drugs which potentiated spontaneous release of arachidonic acid (125% of controls) were deemed to be toxic at the concentration at which this phenomenon occurred. The supernatants were replaced by fresh medium C containing fresh drug and a stimulus. Three drugs were tested at six concentrations (100, 50, 20, 10, 5 and 1 μM) in replicates of four on each plate. The other wells contained controls consisting of a positive control (e.g. dexamethasone), medium (B) only and medium C only.
Incubation was then continued for a further 5 hours, whereupon the supernatants were collected to give media 2 and the adherent cells washed with PBS. The cells were then lysed with 100 μl of 0.1% TRITON® X100 in a 0.1% solution of bovine serum albumin in 0.9% saline and mechanically disrupted to give cell lysates. These supernatants (media 2) and cell lysates (Cells) were also stored in sealed multi-well plates at 4° C. prior to scintillation counting. 200 μl aliquots of media, or 100 μl aliquots of cells were counted using 2 ml of OPTIPHASE "HIGH SAFE" (Trademark of LKB) as scintillant.
The percentage of arachidonic acid released was calculated using the mean values for each group of 4 wells in the following equation. [formula] cpm=courts per minute
The value for the arachidonic acid release in the absence of stimulus (spontaneous, cpm of media 2) from cells which had been exposed to neither stimulus nor drug was subtracted from all equivalent values (cpm media 2, stimulated with or without drug) to give the net stimulated release. The percentage inhibition of arachidonic acid release caused by a drug may then be calculated using the following equation. [formula]
Compounds of formula I were tested at six concentrations (100, 50, 20, 10, 5 and 1 μM) and IC50 values calculated. Compounds with IC50 values<100 μM are considered to be active. Advantageous compounds have an IC50 value <50 μM.
Medium A (for peritoneal lavage) […]

Test [2] concerns Carrageenan-induced rat paw oedema. Put plainly: Test B: Carrageenan-induced rat paw oedema test. The following applies: inhibition of paw oedema, 1 h before carrageenan, 3 h after injection; for inhibition in vivo at 100 mg/kg: Rattus norvegicus, po, 3 h. The format is in vivo, rat (female). On the procedure:
Carrageenan-induced rat paw oedema test
Female rats, weight range 125-150 g were fasted overnight. One of the hind legs of each animal was marked with a line at the connection between the cuboid/navicular and calcaneus/talus bones. Groups of six rats were orally dosed at 10 ml/kg, in random order, with a given dose of the test compound given as a solution or suspension in 10% (w/v) aqueous acacia solution.
One hour after dosing, 0.1 ml of 1% (w/v) sterile carrageenan λ in normal saline was injected deeply into the plantar surface of the marked hind foot of each rat. The volume of the foot (up to the marked line) was measured immediately after injection using duplicate water displacement readings. Three hours after injection the foot volume was measured again and the percentage increase in foot volume relative to the initial reading was calculated.
The increase in foot volume (i.e. the degree of oedema) in drug treated animals when compared with that in the drug untreated control gave the degree of inhibition of paw oedema by the drug.
Compounds were considered to be active in this test if they produced a 20% or greater inhibition of paw oedema in at least two out of three tests after oral dosing at 100 mg/kg. Statistical significance was assessed using the Student't test for single dose studies and Dunnett's test for multiple dose studies. More advantageous compounds were active in both Tests A and B,
(In general: Carrageenan injected into the paw causes an acute inflammation.)

The mark [3] stands for this setting: Mus musculus, Macrophage, 5 h, inhibition of arachidonic acid release, six concentrations (100, 50, 20, 10, 5 and 1 μM), 5 h with zymosan.

One may read the pIC50 as the negative decadic logarithm of the IC50, by convention in mol/L. What is called inhibition in vivo is the relative decrease from the control value, in per cent. On to `CC(NCCCn1ccnc1)c1ccc(Br)cc1` (stereo not shown) [Example 14, N-[1-(4-Bromophenyl)ethyl]-3-(imidazol-1-yl)propylamine], for which the pIC50 in test [1] (setting [3]) is 4.22. In test [2], this compound showed an inhibition in vivo at 100 mg/kg of 60%.

Regarding `CC(NCCCn1ccnc1)c1ccc(Oc2ccccc2)cc1` (stereo not shown) [Example 16, 3-(Imidazol-1-yl)-N-[1-(4-phenoxyphenyl)ethyl]propylamine], the pIC50 in test [1] (Mus musculus, Macrophage, 5 h) was 5.10. This compound registered an inhibition in vivo at 100 mg/kg in test [2] of 9%.

Take `CC(NCCCn1ccnc1)c1ccc(C(C)(C)C)cc1` (stereo not shown) [Example 19, N-[1-(4-Tert-butylphenyl)ethyl]-3-(imidazol-1-yl)propylamine]: the pIC50 in test [1] (setting [3]) is 4.92. In test [2], testing at 100 mg/kg gave an inhibition in vivo of 27%.

Turning to `CCCCOc1ccc(C(C)NCCCn2ccnc2)cc1` (stereo not shown) [Example 22, N-[1-(4-Butoxyphenyl)ethyl]-3-(imidazol-1-yl)propylamine dioxalate], the pIC50 in test [1] (setting [3]) was 4.68. In test [2], this compound returned an inhibition in vivo at 100 mg/kg of 17%.

`Cc1ncn(CCCNC(C)c2ccc(Cl)cc2)c1C` (stereo not shown) [Example 24, N-[1-(4-Chlorophenyl)ethyl]-3-(4,5-dimethylimidazol-1-yl)propylamine dihydrochloride]: the pIC50 in test [1] (setting [3]) was 4.96. Further, the inhibition in vivo at 100 mg/kg in test [2] worked out at 34%.

With `CC(NCCCn1ccnc1-c1ccccc1)c1ccc(Cl)cc1` (stereo not shown) [Example 25, N-[1-(4-Chlorophenyl)ethyl]-3-(2-phenylimidazol-1-yl)propylamine dihydrochloride hydrate], in test [1] (setting [3]), the pIC50 is 4.72. In addition, at 100 mg/kg the inhibition in vivo in test [2] was 34%.

For the compound `CC(NCCCCn1ccnc1)c1ccc(Cl)cc1` (stereo not shown) [Example 26, N-[1-(4-Chlorophenyl)ethyl]-4-(imidazol-1-yl)butylamine], the pIC50 in test [1] (setting [3]) was 4.25. Further, in test [2], the inhibition in vivo at 100 mg/kg turned out to be 40%.

Take `Cc1nccn1CCCNC(C)c1ccc(Cl)cc1` (stereo not shown) [Example 27, N-[1-(4-Chlorophenyl)ethyl]-3-(2-methylimidazol-1-yl)propylamine dihydrochloride]: the pIC50 in test [1] (setting [3]) is 5.10. In addition, in test [2], at 100 mg/kg the inhibition in vivo was 27%.

As to `Clc1ccc(C(NCCCn2ccnc2)c2ccccc2)cc1` (stereo not drawn) [Example 28, N-[α-(4-chlorophenyl)benzyl]-3-(imidazol-1-yl)propylamine], the pIC50 in test [1] (setting [3]) is 4.96. In addition, in test [2], 100 mg/kg produced 48% inhibition in vivo.

`CC(NCCCn1ccnc1)c1ccc(Cl)cc1O` (stereo not shown) [Example 29, 5-chloro-2-{1-[3-(imidazol-1-yl)propylamino]ethyl}phenol dihydrochloride]: the pIC50 in test [1] (setting [3]) was 4.47. Moreover, the inhibition in vivo at 100 mg/kg in test [2] was found to be 36%.

As for `CCC(NCCCn1ccnc1)c1ccc(Cl)cc1` (stereo not shown) [Example 30, N-[1-(4-chlorophenyl)propyl]-3-(imidazol-1-yl)propylamine oxalate], the pIC50 in test [1] (setting [3]) was 4.62. This compound displayed an inhibition in vivo at 100 mg/kg in test [2] of 39%.

Take `Cc1cn(CCCNC(C)c2ccc(Cl)cc2)c(C)n1` (stereo not shown) [Example 31, N-[1-(4-chlorophenyl)ethyl]-3-(2,4-dimethylimidazol-1-yl)propylamine dihydrochloride]: in test [1] (setting [3]), the pIC50 is 5.00. Further, 100 mg/kg produced 25% inhibition in vivo in test [2].

As for `Cc1cn(CCCNC(C)c2ccc(Cl)cc2)c(Cc2ccccc2)n1` (stereo not shown) [Example 32, 3-[2-benzyl-4-methylimidazol-1-yl]-N-[1-(4-chlorophenyl)ethyl]propylamine], the pIC50 in test [1] (setting [3]) is 5.22. Also, in test [2], 100 mg/kg produced 35% inhibition in vivo.

As for `Cc1cn(CCCNC(C)c2ccc(Cl)cc2)c(-c2ccccc2)n1` (stereo not shown) [Example 33, N-[1-(4-chlorophenyl)ethyl]-3-(4-methyl-2-phenyl-imidazol-1-yl)propylamine], the pIC50 in test [1] (setting [3]) was 5.00. In test [2], this compound gave an inhibition in vivo at 100 mg/kg of 2%.

Consider `c1ccc(C(NCCCn2ccnc2)c2ccccc2)cc1` [Example 34, N-benzhydryl-3-(imidazol-1-yl)propylamine dihydrochloride], for which the pIC50 in test [1] (setting [3]) was 4.49. This compound also showed an inhibition in vivo at 100 mg/kg in test [2] of 47%.

For `Clc1ccc(CNCCCn2ccnc2)cc1Cl` [Example 35, N-(3,4-dichlorobenzyl)-3-(imidazol-1-yl)propylamine], the pIC50 in test [1] (setting [3]) was 4.68. Also, the inhibition in vivo at 100 mg/kg in test [2] is 47%.

`c1ccc(Oc2ccc(CNCCCn3ccnc3)cc2)cc1` [Example 39, 3-(Imidazol-1-yl)-N-(4-phenoxybenzyl)propylamine]: the pIC50 in test [1] (setting [3]) is 5.00. The inhibition in vivo at 100 mg/kg in test [2] stood at 35%.

For the compound `Cc1cc(Cl)ccc1CNCCCn1ccnc1` [Example 40, N-(4-Chloro-2-methylbenzyl)-3-(imidazol-1-yl)propylamine dihydrochloride], in test [1] (setting [3]), the pIC50 was 4.30. The same compound yielded an inhibition in vivo at 100 mg/kg in test [2] of 31%.

As for `Clc1ccc(CNCCCn2ccnc2)c(Cl)c1` [Example 41, N-(2,4-Dichlorobenzyl)-3-(imidazol-1-yl)propylamine], in test [1] (setting [3]), the pIC50 was 4.24. Also, 100 mg/kg produced 29% inhibition in vivo in test [2].

For the compound `Cc1nccn1CCCNCc1ccc(Cl)cc1` [Example 43, N-(4-Chlorobenzyl)-3-(2-methylimidazol-1-yl)propylamine], the pIC50 in test [1] (setting [3]) is 4.31. In test [2], the inhibition in vivo at 100 mg/kg amounted to 33%.

On to `Cc1cn(CCCNCc2ccc(Cl)cc2)cn1` [Example 44, N-(4-Chlorobenzyl)-3-(4-methylimidazol-1-yl)propylamine dihydrochloride], for which the pIC50 in test [1] (setting [3]) was 4.52. In test [2], this compound came in with an inhibition in vivo at 100 mg/kg of 8%.

As for `Cc1ncn(CCCNCc2ccc(Cl)cc2)c1C` [Example 45, N-(4-Chlorobenzyl)-3-(4,5-dimethylimidazol-1-yl)propylamine dihydrochloride], in test [1] (setting [3]), the pIC50 is 5.10. In test [2], the inhibition in vivo at 100 mg/kg amounted to 6%.

Regarding `Cc1cn(CCCNCc2ccc(Cl)cc2)c(Cc2ccccc2)n1` [Example 47], the pIC50 in test [1] (inhibition of arachidonic acid release, six concentrations (100, 50, 20, 10, 5 and 1 μM), 5 h with zymosan) was 5.15. The “Test B % inhibition at 100 mg/kg” value in test [2] (oral) is reported as 35%.

As for `COC(=O)c1ccc(CNCCCn2ccnc2C)cc1` [Example 49, methyl 4-[3-(2-methylimidazol-1-yl)propylaminomethyl]benzoate], the pIC50 in test [1] (setting [3]) is 4.35. The compound also had an inhibition in vivo at 100 mg/kg in test [2] of 0%.

Take `COc1cc(C)c(CNCCCn2ccnc2)c(C)c1` [Example 50, 3-(imidazol-1-yl)-N-(4-methoxy-2,6-dimethylbenzyl)propylamine dihydrochloride]: the pIC50 in test [1] (setting [3]) is 4.51. The same compound came in with an inhibition in vivo at 100 mg/kg in test [2] of 0%.

With `CCOC(=O)C=Cc1ccc(CNCCCn2ccnc2C)cc1` [Example 51, ethyl 4-[3-(2-methylimidazol-1-yl)propylaminomethyl]cinnamate dihydrochloride], the pIC50 in test [1] (setting [3]) is 4.70. The inhibition in vivo at 100 mg/kg in test [2] was 1%.

Values taken from patent publication US5547972A, “Therapeutic agents useful for treating inflammatory diseases” (The Boots Company PLC, priority 1991, dated 1996).
